Reference: patent publication US20210228500A1, “CELLULAR RETINOID BINDING PROTEIN ANTAGONISTS AND USES THEREOF” (CASE WESTERN RESRVE UNIVERSITY, priority 2018, published 2021)
“Also recorded” adds a separate entry of the source.

How the values were obtained:
[1] = biological target: T1, RDH5 (Bos taurus, UniProt Q27979); experiment: 11-cis-retinol oxidation assay; format: biochemical; settings: bovine RPE microsomes preincubated with 10-50 μM
T1 construct: from tissue; host or cells: bovine RPE microsomes
T1 sequence (Q27979 1-318): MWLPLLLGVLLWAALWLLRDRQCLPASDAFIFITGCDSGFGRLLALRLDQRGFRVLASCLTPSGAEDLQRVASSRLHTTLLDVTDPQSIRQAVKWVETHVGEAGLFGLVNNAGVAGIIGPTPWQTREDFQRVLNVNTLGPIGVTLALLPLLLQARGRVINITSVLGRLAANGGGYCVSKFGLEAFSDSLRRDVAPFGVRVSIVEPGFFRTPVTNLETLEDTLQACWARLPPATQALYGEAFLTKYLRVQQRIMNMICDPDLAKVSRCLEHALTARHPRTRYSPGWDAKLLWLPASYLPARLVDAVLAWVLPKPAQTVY
Protocol: Dehydrogenase activity was assayed by monitoring oxidation of 11-cis-retinol to a corresponding aldehyde in bovine RPE microsomes. The reaction mixture containing 20 mM Tris/HCl buffer, pH 8.0, 1% BSA (w/v), 20 μM NAD+, and RPE microsomes (˜100 μg of total protein) in the total volume of 0.1 mL. 11-cis-Retinol (10 μM) was incubated at 30° C. for 10 min. The reaction was stopped by 0.2 mL of methanol that contained 40 mM hydroxylamine. After subsequent 15 min of incubation at RT, the retinoids were extracted with 0.3 mL of hexane and analyzed by normal-phase HPLC as described for the retinol esterification assay.
Thus, to further probe the biological effect of this compound, we tested its effect on the key enzymes of the visual cycle. For this purpose, microsomes isolated from bovine RPE cells were preincubated with 10-50 μM of abn-CBD (1:1 to 1:5 molar excess of cannabinoid) prior to the initiation of the esterification, isomerization, or oxidation reactions by addition of an adequate retinoid substrate.

[2] = Detection and quantification of abn-CBD in the ocular tissues; format: in vivo, Balb/cJ mice; settings: single dose 15 mg kg^−1 i.p.
Protocol: Balb/cJ mice were i.p. injected with 15 mg kg^−1 dose of abn-CBD. At the time points between 1 and 15 h, they were deeply anesthetized by ketamine/xylazine injection and perfused with PBS. Perfused eyes were collected and homogenized in 1 mL of PBS/methanol (v/v). During the homogenization, 100 pmol of an internal standard (3d-abn-CBD) was added. The samples were extracted with 4 mL of hexane and centrifuged at 15,000 g for […] at 4° C. The organic solvent was transferred to glass test tubes and dried in a Savant speedvac concentrator (Thermo Fisher Scientific). The extracted compounds were dissolved in 0.3 mL of ethanol and subjected to LC/MS analysis and quantification as described above.

[3] = test system: visual cycle retinoids in mouse eye; experiment: Photobleaching and visual chromophore regeneration, ocular retinoid analysis; format: in vivo, Balb/cJ mice; settings: 0.25 mg 1.5 h prior to flash of light bleaching 75% of rhodopsin
Protocol: Balb/cJ mice were dark adapted for at least 24 h before the experiment. […] After the light exposure, the mice were kept in dark and euthanized at time intervals between 1 min to 8 h. The eyes were removed, flash frozen in liquid nitrogen, and stored in −80° C. until retinoid analysis.
All procedures related to the retinoid analysis were done under dim red light. To extract retinoids, enucleated eyes were transferred to a glass/glass homogenizer and submerged in 1 mL of 40 mM hydroxylamine in a 1:1 solution of PBS/methanol (v/v). The eyes were thoroughly homogenized and incubated at RT for 20 min to allow derivatization of retinylaldehydes to retinaldehdye oximes. The retinoids were extracted with 4 mL of hexane. To facilitate the fraction separation, the samples were centrifuged at 5000 g for 10 min, after which the upper organic phase was collected in a glass test tube. The organic solvent was dried in a rotary SpeedVac, and the residual retinoids were redissolved in […] of hexanes, and subjected to HPLC analysis. Separation of retinoids was achieved on a normal phase column (Agilent Zorbax Sil 5 μm 4.6×250 mm) in a step gradient of ethyl acetate in hexane (1% for 10 min followed by 10% for 40 min at a constant flow rate of 1.5 mL min^−1). Elution of retinoids was monitored at 325 and 360 nm wavelengths. All-trans-retinyl esters, all-trans- and 11-cis-retinaldehdye oximes as well as atROL were identified based on their elution times and characteristic UV/vis spectra. Retinoids were quantified based on linear correlations between the amount of injected synthetic standards and the area under chromatographic peaks.
Next, we examined the impact of abn-CBD on vitamin A metabolism in vivo. For this purpose, we analyzed the flow of retinoids via the visual cycle during the regeneration of visual chromophore after exposure to bright light. […] The light intensity was set up to cause photoisomerization in 75% of rhodopsin as indicated by the decrease in the amount of 11-cis-retinal measured immediately after the light exposure (FIG. 7). […]

[4] = test system: Balb/cJ mice; experiment: Light-induced retinal degeneration (OCT, H&E histology); format: in vivo
Protocol: Retinal degeneration was induced by exposing dark-adapted Balb/cJ mice to white light with an intensity of ˜50 000 l×, delivered from a 100 W AC90-145 V lightemitting diode (LED) lamp (Home Depot) for 1 h. Abn-CBD in doses of 30, 15, or 7.5 mg kg^−1 was administered by i.p. injection in sterilized 80% DMSO/water (v/v) 1 h before exposure to bright light. […] Retinal morphology was analyzed in vivo by OCT 7 d after the light exposure. Then the mice were euthanized, and their eyes were subjected to staining with H&E staining and imaging.
To assess the effect of abn-CBD on light-induced retinal degeneration in Balb/cJ mice, the retinas were examined by ultrahigh resolution OCT (Bioptigen). Pupils of mice were first dilated with 1% tropicamide, and the animals were anesthetized with ketamine/xylazine cocktail. Twenty-five frames of OCT images scanned at 0° and 90° were acquired in the B-scan and averaged.
The structural morphology of mouse retinas challenged with bright light were assessed using H&E staining of paraffin sections. Mouse eyes were fixed in 4% paraformaldehyde and 1% glutaraldehyde followed by paraffin sectioning. Paraffin sections (5 μm thick) were stained with H&E and imaged by light microscopy (Leica).

Compound: C=C(C)[C@@H]1CCC(C)=C[C@H]1c1c(O)cc(O)cc1CCCCC [abn-CBD, 4-[(1R,6R)-3-Methyl-6-prop-1-en-2-ylcyclohex-2-en-1-yl]-5-pentylbenzene-1,3-diol]
- effect on enzymatic activity of RDH5 [1]: did not cause a measurable decline
- half-life ([2]; Balb/cJ, mouse, eye (PBS-perfused, homogenate), ip): ~7 h
- time of maximum ocular level after the injection [2]: 2 h
- ocular level, maximum value ([2]; PBS-perfused eyes): 58 pmol/eye
- atROL level during chromophore regeneration [3]: transient accumulation of atROL
- rate of 11-cis-retinaldehyde regeneration [3]: noticeably slower
- rate of all-trans-retinaldehyde clearance vs control [3]: no differences
- retinal histology (H&E) after light exposure ([4]; 7 d post illumination): protective effect; also recorded: partial preservation of the photoreceptor cells
- dose causing 50% of maximum effect (ED50), protection against light-induced retinal damage ([4]; i.p. before bright light, OCT (ONL thickness) 7 d later, estimated): ~15 mg/kg
- protection against light-induced retinal damage (OCT retinal morphology) ([4]; i.p. before bright light, OCT a week later): largely protected; also recorded: protective effect
